# Test results from publication PMC6405930, “Conservation of the Amyloid Interactome Across Diverse Fibrillar Structures” (Scientific Reports, 2019).
# What was measured:
# glucagon fibrils [1] = biological target: T1, glucagon fibrils (Homo sapiens, UniProt P01275); experiment: Fibril incubation with plasma, quantitative MS/MS of bound proteins; type: binding; conditions: 50:1 w/w plasma protein:fibril
# T1 construct: fibrils of the peptide hormone glucagon
# Experimental: (§1) Plasma and CSF solutions were centrifuged (40,000 g, 20 min) to remove any aggregates. The protein concentration was determined using 280 nm absorbance assuming 1 Abs = 1 mg/mL. […] Control samples (without fibril material) were prepared similarly. All samples were incubated at room temperature for one hour under gentle agitation. Fibrils and fibril-bound proteins were pelleted by centrifugation at 17,000 g for 30 minutes. The supernatant (175 μL) was removed and the aggregate was re-suspended in 175 μL PBS and pelleted again before further preparation for gel analysis and spin-filter assisted digest for quantitative MS/MS.
# (§2) The fibril-protein pellets were transferred to spin-filters (0.22 μm), washed twice in PBS (100 μL) and once in 1 M NaCl (100 μL). The fibrils and fibril-bound proteins were dissolved by one-hour incubation in 100 μL 6 M guanidinium chloride followed by elution from the spin-filter. The eluted proteins were loaded onto a 3 kDa MWCO filter unit for filter-assisted unfolding, reduction, alkylation, and trypsin digestion. In brief, samples were washed twice in 8 M urea, once in 8 M urea with 50 mM DTT, once in 8 M urea with 50 mM iodoaceteamide, and twice in 8 M Urea. The filter units were dried by centrifugation (14,000 g in 30 minutes) after every addition. Trypsin digestion was carried out with 0.25 μg sequencing grade trypsin from Sigma Aldrich in 50 mM ammonium bicarbonate overnight at 37 °C. The tryptic peptides were collected by centrifugation, acidified with TFA (0.1%) and micro-purified using POROS R2 column material (Applied Biosystems) packed in P200 pipette tips (Sarstedt).
# (§3) LC-MS/MS analyses were performed on an EASY-nLC II system (Thermo Fisher Scientific) connected to a TripleTOF 5600+ mass spectrometer (Sciex) equipped with a NanoSpray III source (Sciex) and operated under Analyst TF 1.6.0 control.
# (§4) The micro-purified tryptic peptides were dissolved in 0.1% formic acid, injected and trapped on an in-house packed trap column (2 cm × 100 μm I.D) with RP ReproSil-Pur C18-AQ 3 μm resin (Dr. Maisch GmbH). Peptides were eluted from the trap column and separated on a 15 cm analytical column (75 μm i.d.) packed in-house in a pulled emitter with RP ReproSil-Pur C18-AQ 3 μm resin (Dr. Maisch GmbH). Elution from the analytical column was performed with a linear gradient from 5% to 35% phase B (90% acetonitrile with 0.1% formic acid) over 20 min for protein identification and 50 min for quantitative analysis, respectively.
# (§5) All samples were analysed three times, yielding nine MS/MS experiments for each fibril for both plasma and CSF. For the area-based extracted ion chromatogram (XIC) quantification, the acquisition method was set up as an information-dependent acquisition (IDA) experiment collecting up to 25 MS/MS spectra in each 1.6 sec cycle using an exclusion window of 6 sec.
# (§6) XIC quantification was based on the average ion intensity of the three most abundant peptides for each protein. Only proteins quantified in at least four out of nine MS/MS experiments per fibril were included in the quantification. The total ion scores were visualized after grouping the proteins according to function (Figure S11).
# (§7) For each MS/MS experiment, the ion intensities of the individual proteins were normalized to the total ion intensity of that MS/MS experiment to achieve a relative protein composition. The contribution of each protein was averaged over all nine MS/MS experiments (Tables 1 and 2).
# C-36 fibrils [2] = biological target: T2, C-36 fibrils (Homo sapiens, UniProt P01009); experiment: as above; type: binding; design: key to Identification status of plasma protein bound: C-36: *: Identified, but not quantified; —: Not identified in any of the samples; conditions: for Relative composition of plasma proteins bound: C-36: 50:1 w/w plasma protein:fibril
# T2 construct: the 36 residue C-terminal fragment of α1-antitrypsin (C-36)
# Experimental: as §1, §2, §3, §4, §5, §6, §7
# FAS4-AD aggregates [3] = test system: T3, FAS4-AD aggregates; experiment: Fibril incubation with CSF, quantitative MS/MS of bound proteins; type: binding, human; design: key to Identification status of CSF protein bound: FAS4-AD: *: Identified, but not quantified; —: Not identified in any of the samples; conditions: for Relative composition of CSF proteins bound: FAS4-AD: 4:1 w/w CSF protein:fibril; for Identification status of CSF protein bound: FAS4-AD: symbol cells
# T3 construct: aggregates of a mutated version of the FAS1-4 domain of TGFBIp
# Experimental: as §1, §2, §3, §4, §5, §6, §7
# αSN fibrils [4] = biological target: T4, αSN fibrils (Homo sapiens, UniProt P37840); experiment: Fibril incubation with plasma, quantitative MS/MS of bound proteins; type: binding; design: key to Identification status of plasma protein bound: αSN: *: Identified, but not quantified; —: Not identified in any of the samples; conditions: for Relative composition of plasma proteins bound: αSN: 50:1 w/w plasma protein:fibril; for Identification status of plasma protein bound: αSN: symbol cells
# Experimental: as §1, §2, §3, §4, §5, §6, §7
# Ab2 fibrils [5] = test system: T5, Ab2 fibrils; experiment: Fibril incubation with CSF, quantitative MS/MS of bound proteins; type: binding, human; design: key to Identification status of CSF protein bound: Ab2: *: Identified, but not quantified; —: Not identified in any of the samples; conditions: for Relative composition of CSF proteins bound: Ab2: 4:1 w/w CSF protein:fibril; for Identification status of CSF protein bound: Ab2: symbol cells
# T5 construct: Two structurally distinct fibrils of the Aβ(1–40) peptide associated with AD
# Experimental: as §1, §2, §3, §4, §5, §6, §7
# Ab1 fibrils [6] = test system: T6, Ab1 fibrils; experiment: as above; type: binding, human; conditions: 4:1 w/w CSF protein:fibril
# T6 construct: Synthetic amyloid β peptide 1–40 was purchased from Caslo Aps (Lyngby, Denmark); purchased Caslo Aps (Lyngby, Denmark); host or cells: synthetic peptide
# Experimental: as §1, §2, §3, §4, §5, §6, §7
# Ab2 fibrils [7] = test system: T5, Ab2 fibrils; experiment: Fibril incubation with plasma, quantitative MS/MS of bound proteins; type: binding, human; conditions: 50:1 w/w plasma protein:fibril
# Experimental: as §1, §2, §3, §4, §5, §6, §7
# glucagon fibrils [8] = biological target: T1, glucagon fibrils; experiment: Fibril incubation with CSF, quantitative MS/MS of bound proteins; type: binding; conditions: 4:1 w/w CSF protein:fibril
# Experimental: as §1, §2, §3, §4, §5, §6, §7
# αSN fibrils [9] = biological target: T4, αSN fibrils; experiment: as above; type: binding; design: key to Identification status of CSF protein bound: αSN: *: Identified, but not quantified; —: Not identified in any of the samples; conditions: for Relative composition of CSF proteins bound: αSN: 4:1 w/w CSF protein:fibril; for Identification status of CSF protein bound: αSN: symbol cells
# Experimental: as §1, §2, §3, §4, §5, §6, §7
# C-36 fibrils [10] = biological target: T2, C-36 fibrils; experiment: as above; type: binding; design: key to Identification status of CSF protein bound: C-36: *: Identified, but not quantified; —: Not identified in any of the samples; conditions: for Relative composition of CSF proteins bound: C-36: 4:1 w/w CSF protein:fibril; for Identification status of CSF protein bound: C-36: symbol cells
# Experimental: as §1, §2, §3, §4, §5, §6, §7
# FAS4-AD aggregates [11] = test system: T3, FAS4-AD aggregates; experiment: Fibril incubation with plasma, quantitative MS/MS of bound proteins; type: binding, human; design: key to Identification status of plasma protein bound: FAS4-AD: *: Identified, but not quantified; —: Not identified in any of the samples; conditions: for Relative composition of plasma proteins bound: FAS4-AD: 50:1 w/w plasma protein:fibril; for Identification status of plasma protein bound: FAS4-AD: symbol cells
# Experimental: as §1, §2, §3, §4, §5, §6, §7
# Ab1 fibrils [12] = test system: T6, Ab1 fibrils; experiment: as above; type: binding, human; conditions: 50:1 w/w plasma protein:fibril
# Experimental: Plasma and CSF solutions were centrifuged (40,000 g, 20 min) to remove any aggregates. The protein concentration was determined using 280 nm absorbance assuming 1 Abs = 1 mg/mL. […] Control samples (without fibril material) were prepared similarly. All samples were incubated at room temperature for one hour under gentle agitation. Fibrils and fibril-bound proteins were pelleted by centrifugation at 17,000 g for 30 minutes. The supernatant (175 μL) was removed and the aggregate was re-suspended in 175 μL PBS and pelleted again before further preparation for gel analysis and spin-filter assisted digest for quantitative MS/MS.
# as §2, §3, §4, §5, §6, §7
# T1 sequence (P01275 53-81 limits assumed): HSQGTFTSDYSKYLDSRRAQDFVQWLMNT
# T2 sequence (P01009 383-418 limits assumed): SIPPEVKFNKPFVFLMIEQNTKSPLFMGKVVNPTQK
Substance,Relative composition of plasma proteins bound: Glucagon (glucagon fibrils [1]),Relative composition of plasma proteins bound: C-36 (C-36 fibrils [2]),Relative composition of CSF proteins bound: FAS4-AD (FAS4-AD aggregates [3]),Relative composition of CSF proteins bound: FAS4-AD (FAS4-AD aggregates [3]; listed as clusterin),Relative composition of plasma proteins bound: αSN (αSN fibrils [4]),Relative composition of CSF proteins bound: Ab2 (Ab2 fibrils [5]),Relative composition of CSF proteins bound: Ab1 (Ab1 fibrils [6]),Relative composition of plasma proteins bound: Ab2 (Ab2 fibrils [7]),Relative composition of CSF proteins bound: Glucagon (glucagon fibrils [8]),Relative composition of CSF proteins bound: αSN (αSN fibrils [9]),Relative composition of CSF proteins bound: C-36 (C-36 fibrils [10]),Relative composition of plasma proteins bound: FAS4-AD (FAS4-AD aggregates [11]),Relative composition of plasma proteins bound: Ab1 (Ab1 fibrils [12]),Identification status of CSF protein bound: FAS4-AD (FAS4-AD aggregates [3]),Identification status of plasma protein bound: αSN (αSN fibrils [4]),Identification status of CSF protein bound: Ab2 (Ab2 fibrils [5]),Identification status of CSF protein bound: αSN (αSN fibrils [9]),Identification status of plasma protein bound: FAS4-AD (FAS4-AD aggregates [11]),Identification status of plasma protein bound: C-36 (C-36 fibrils [2]; symbol cells),Identification status of CSF protein bound: C-36 (C-36 fibrils [10])
Clusterin: plasma/CSF protein bound to fibrils,0.5 ± 0.1 % of total protein,3.5 ± 0.9 % of total protein,22.8 ± 11.2 % of total protein,22.8 % of total protein,1.6 ± 0.9 % of total protein,6.9 ± 1.6 % of total protein,9.4 ± 1.0 % of total protein,2.2 ± 1.2 % of total protein,2.4 ± 0.6 % of total protein,12.2 ± 2.9 % of total protein,8.6 ± 1.7 % of total protein,7.9 ± 4.2 % of total protein,1.1 ± 0.1 % of total protein,,,,,,,
Complement C1s subcomponent: plasma/CSF protein bound to fibrils,0.2 ± 0.0 % of total protein,0.4 ± 0.1 % of total protein,,,,,0.2 ± 0.0 % of total protein,0.7 ± 0.1 % of total protein,0.2 ± 0.0 % of total protein,,0.7 ± 0.2 % of total protein,,0.3 ± 0.0 % of total protein,—,*,*,—,—,,
α1-antitrypsin: plasma/CSF protein bound to fibrils,0.6 ± 0.0 % of total protein,,,,,,0.5 ± 0.2 % of total protein,0.4±0.0 % of total protein,1.0 ± 0.2 % of total protein,,,1.4 ± 0.5 % of total protein,0.4 ± 0.0 % of total protein,*,*,*,*,,*,*
Complement C3: plasma/CSF protein bound to fibrils,2.3 ± 0.2 % of total protein,0.2 ± 0.0 % of total protein,,,,0.3 ± 0.1 % of total protein,0.3 ± 0.1 % of total protein,0.6 ± 0.1 % of total protein,0.8 ± 0.2 % of total protein,,,,0.4 ± 0.0 % of total protein,—,*,,—,*,,*
Apolipoprotein D: plasma/CSF protein bound to fibrils,0.3 ± 0.1 % of total protein,0.9 ± 0.1 % of total protein,5.7 ± 0.4 % of total protein,,,11.2 ± 0.6 % of total protein,8.7 ± 0.4 % of total protein,0.3 ± 0.0 % of total protein,1.8 ± 0.3 % of total protein,3.4 ± 0.5 % of total protein,9.0 ± 2.3 % of total protein,1.1 ± 0.1 % of total protein,0.1 ± 0.0 % of total protein,,*,,,,,
Ig γ-1 chain C region: plasma/CSF protein bound to fibrils,1.2 ± 0.2 % of total protein,1.9 ± 0.2 % of total protein,,,1.9 ± 0.9 % of total protein,3.1 ± 0.3 % of total protein,2.5 ± 0.1 % of total protein,1.2 ± 0.1 % of total protein,1.4 ± 0.5 % of total protein,4.2 ± 0.4 % of total protein,1.4 ± 0.2 % of total protein,9.5 ± 2.6 % of total protein,1.1 ± 0.1 % of total protein,*,,,,,,
